The values below come from patent publication US8653102B2, “Substituted 2-oxo- and 2-thioxo-dihydroquinoline-3-carboxamides as KCNQ2/3 modulators” (Gruenenthal GmbH, priority 2010, dated 2014).

This test has as its target T1, KCNQ2/3 channels (Homo sapiens, UniProt O43525+O43526).
T1 construct: expressed in transfected cells; host or cells: CHO-K1 cells kept under selection antibiotics
Description: Fluorescence assay using a voltage sensitive dye (fluorimetry). Format: cell-based. Conditions: CHO-K1 cells expressing KCNQ2/3 channels; for Emax: relative to retigabine (RTG) = 100%, read-out: Fluorimetry % efficacy (RTG = 100%). Here is the method: Pharmacological Experiments Method I. Fluorescence Assay Using a Voltage Sensitive Dye (Fluorimetry)
[…] CHO-K1 cells expressing KCNQ2/3 channels are cultivated adherently at 37° C., 5% CO2 and 95% humidity in cell culture bottles (e.g. 80 cm^2 TC flasks, Nunc) with DMEM-high glucose (Sigma Aldrich, D7777) including 10% FCS (PAN Biotech, e.g. 3302-P270521) or alternatively MEM Alpha Medium (1×, liquid, Invitrogen, #22571), 10% fetal calf serum (FCS) (Invitrogen, #10270-106, heat-inactivated) and the necessary selection antibiotics.
Before being sown out for the measurements, the cells are washed with 1×DPBS buffer Ca^2+/Mg^2+-free (e.g. Invitrogen, #14190-094) and detached from the bottom of the culture vessel by using Accutase (PAA Laboratories, #L11-007) (incubation with Accutase for 15 min at 37° C.). The cell number is determined using a CASY™ cell counter (TCC, Schärfe System). Depending on the optimal density for each individual cell line, 20,000-30,000 cells/well/100 μl are seeded onto 96-well Corning™ CellBIND™ assay plates (Flat Clear Bottom Black Polystyrene Microplates, #3340). Freshly seeded cells are then left to settle for one hour at room temperature, followed by incubation for 24 hours at 37° C., 5% CO2 and 95% humidity.
The voltage-sensitive fluorescent dye from the Membrane Potential Assay Kit (Red™ Bulk format part R8123 for FLIPR, MDS Analytical Technologies™) is prepared by dissolving the contents of one vessel Membrane Potential Assay Kit Red Component A in 200 ml of extracellular buffer (ES buffer, 120 mM NaCl, 1 mM KCl, 10 mM HEPES, 2 mM CaCl2, 2 mM MgCl2, 10 mM glucose; pH 7.4). After removal of the nutrient medium, the cells are washed once with 200 μl of ES buffer, then loaded for 45 min at room temperature in 100 μl of dye solution in the dark.
Fluorescence measurements are carried out in a BMG Labtech FLUOstar™, BMG Labtech NOVOstar™ or BMG Labtech POLARstar™ instrument (525 nm excitation, 560 nm emission, Bottom Read mode). After incubation with the dye, 50 μl of the test substances in the desired concentrations, or 50 μl of ES buffer for control purposes, are applied to the wells of the assay plate and incubated for 30 min at room temperature while being shielded from light. The fluorescence intensity of the dye is then measured for 5 min and the fluorescence value F1 of each well is thus determined at a given, constant time. 15 μl of a KCl solution are then added to each well (final concentration of potassium ions 92 mM). The change in fluorescence intensity is subsequently monitored until all the relevant values have been obtained (mainly 5-30 min). At a given time post KCl application, a fluorescence value F2 is determined, in this case at the time of the fluorescence peak.
For calculation, the fluorescence intensity F2 is corrected for the fluorescence intensity F1, and the activity (ΔF/F) of the target compound on the potassium channel is determined as follows:
In order to determine whether a substance has agonistic activity,
A substance has an agonistic activity on the potassium channel if
[formula] increases dose dependently.
Calculations of EC50 and IC50 values are carried out with the aid of ‘Prism v4.0’ software (GraphPad Software™).

Broadly, the pEC50 is the EC50 on a negative log10 scale, so that one unit is a factor of ten. High values mean a low EC50, low ones a high EC50.

pEC50: −log10 of the molar value.

For the molecule `Cc1c(C(=O)N(C)c2cccc(F)c2)c(=O)n(CCC(=O)O)c2cc(C(F)(F)F)ccc12` [Example 29, 3-[3-[(3-fluorophenyl)-methyl-carbamoyl]-4-methyl-2-oxo-7-(trifluoromethyl)-1H-quinolin-1-yl]-propionic acid], the Emax stood at 6%.
On the same count and under the same terms, with `CCOCCn1c(=O)c(C(=O)NCc2cccc(F)c2)c(C)c2ccc(C(F)(F)F)cc21` [Example 39, 1-(2-ethoxy-ethyl)-N-[(3-fluorophenyl)-methyl]-4-methyl-2-oxo-7-(trifluoromethyl)-1H-quinoline-3-carboxylic acid amide] the figure was 43%.
Still for that read-out and setting: with `COCCn1c(=O)c(C(=O)NCc2cccc(F)c2)c(C)c2ccccc21` [Example 10, N-[(3-fluorophenyl)-methyl]-1-(2-methoxy-ethyl)-4-methyl-2-oxo-1H-quinoline-3-carboxylic acid amide] the figure was 22%.
On to `Cc1c(C(=O)NCc2cccc(F)c2)c(=O)n(C)c2cc(F)ccc12` [Example 34, 7-fluoro-N-[(3-fluorophenyl)-methyl]-1,4-dimethyl-2-oxo-1H-quinoline-3-carboxylic acid amide], for which the pEC50 was 5.50 and the Emax was determined as 105%.
In the case of `Cc1c(C(=O)NCc2cccc(F)c2)c(=O)n(CCO)c2cc(C(F)(F)F)ccc12` [Example 38, N-[(3-fluorophenyl)-methyl]-1-(2-hydroxy-ethyl)-4-methyl-2-oxo-7-(trifluoromethyl)-1H-quinoline-3-carboxylic acid amide], the negative logarithm of the EC50 (pEC50) was 5.74 and the Emax was determined as 160%.
In the case of `Cc1c(C(=O)NCc2ccc(F)cc2)c(=O)n(C)c2cc(C#N)ccc12` [Example 21, 7-cyano-N-[(4-fluorophenyl)-methyl]-1,4-dimethyl-2-oxo-1H-quinoline-3-carboxylic acid amide], the pEC50 was 6.08 and the Emax was found to be 136%.
The like results for `COCC(C)n1c(=O)c(C(=O)NCc2cccc(F)c2)c(C)c2ccc(C(F)(F)F)cc21` (stereo not shown) [Example 35, N-[(3-fluorophenyl)-methyl]-1-(2-methoxy-1-methyl-ethyl)-4-methyl-2-oxo-7-(trifluoromethyl)-1H-quinoline-3-carboxylic acid amide] were, in that order, 6.94 and 118%.
The like results for `Cc1c(C(=O)NCc2cccc(F)c2)c(=O)n(C)c2cc(C#N)ccc12` [Example 20, 7-cyano-N-[(3-fluorophenyl)-methyl]-1,4-dimethyl-2-oxo-1H-quinoline-3-carboxylic acid amide] were, in that order, 5.90 and 143%.
Regarding `Cn1c(=O)c(C(=O)NCc2cccc(F)c2)c(C(F)(F)F)c2ccccc21` [Example 42, N-[(3-fluorophenyl)-methyl]-1-methyl-2-oxo-4-(trifluoromethyl)-1H-quinoline-3-carboxylic acid amide], the pEC50 was 5.30 and the Emax came out at 103%.
With `Cc1c(C(=O)NCc2cccc(F)c2)c(=O)n(C)c2cc(Cl)ccc12` [Example 37, 7-chloro-N-[(3-fluorophenyl)-methyl]-1,4-dimethyl-2-oxo-1H-quinoline-3-carboxylic acid amide], the negative logarithm of the EC50 (pEC50) is 6.14 and the Emax is 139%.
The like results for `Cc1c(C(=O)NCCCC(C)(C)C)c(=O)n(C)c2cc(C(F)(F)F)ccc12` [Example 25, N-(4,4-dimethyl-pentyl)-1,4-dimethyl-2-oxo-7-(trifluoromethyl)-1H-quinoline-3-carboxylic acid amide] were, in that order, 7.17 and 258%.
On to `CCn1c(=O)c(C(=O)NCc2ccc(F)cc2)c(C)c2ccc(C(F)(F)F)cc21` [Example 8, 1-ethyl-N-[(4-fluorophenyl)-methyl]-4-methyl-2-oxo-7-(trifluoromethyl)-1H-quinoline-3-carboxylic acid amide], for which the pEC50 was 6.40 and the Emax was 175%.
For `CCC(Cn1c(=O)c(C(=O)NCc2cccc(F)c2)c(C)c2ccc(C(F)(F)F)cc21)OC` (stereo not shown) [Example 32, N-[(3-fluorophenyl)-methyl]-1-(2-methoxy-butyl)-4-methyl-2-oxo-7-(trifluoromethyl)-1H-quinoline-3-carboxylic acid amide], the Emax came out at 26%.
As for `Cc1c(C(=O)NCc2cccc(F)c2)c(=O)n(C)c2ccccc12` [Example 9, N-[(3-fluorophenyl)-methyl]-1,4-dimethyl-2-oxo-1H-quinoline-3-carboxylic acid amide], the negative logarithm of the EC50 (pEC50) is 5.25 and the Emax worked out at 63%.
As to `CCn1c(=O)c(C(=O)NCc2cccc(F)c2)c(C)c2ccc(C(F)(F)F)cc21` [Example 5, 1-ethyl-N-[(3-fluorophenyl)-methyl]-4-methyl-2-oxo-7-(trifluoromethyl)-1H-quinoline-3-carboxylic acid amide], the pEC50 is 6.42 and the Emax was 173%.
Regarding `COC(=O)CCn1c(=O)c(C(=O)N(C)c2cccc(F)c2)c(C)c2ccc(C(F)(F)F)cc21` [Example 27, 3-[3-[(3-fluorophenyl)-methyl-carbamoyl]-4-methyl-2-oxo-7-(trifluoromethyl)-1H-quinolin-1-yl]-propionic acid methyl ester], the Emax was 22%.
The same measure, in the same setting: the result for `Cc1c(C(=O)NCc2cccc(F)c2)c(=O)n(CCC(C)C)c2cc(C(F)(F)F)ccc12` [Example 12, N-[(3-fluorophenyl)-methyl]-4-methyl-1-(3-methyl-butyl)-2-oxo-7-(trifluoromethyl)-1H-quinoline-3-carboxylic acid amide] reads 33%.
As to `COCCOCCn1c(=O)c(C(=O)NCc2cccc(F)c2)c(C)c2ccc(C(F)(F)F)cc21` [Example 15, N-[(3-fluorophenyl)-methyl]-1-[2-(2-methoxy-ethoxy)-ethyl]-4-methyl-2-oxo-7-(trifluoromethyl)-1H-quinoline-3-carboxylic acid amide], the pEC50 is 5.70 and the Emax turned out to be 78%.
`COCCn1c(=O)c(C(=O)NCCCC(C)(C)C)c(C)c2ccc(C(F)(F)F)cc21` [Example 24, N-(4,4-dimethyl-pentyl)-1-(2-methoxy-ethyl)-4-methyl-2-oxo-7-(trifluoromethyl)-1H-quinoline-3-carboxylic acid amide]: the negative-log EC50 (pEC50) is 6.78 and the Emax was found to be 231%.
In the case of `Cc1c(C(=O)NCc2cccc(F)c2)c(=O)n(C)c2cc(OC(F)(F)F)ccc12` [Example 33, N-[(3-fluorophenyl)-methyl]-1,4-dimethyl-2-oxo-7-(trifluoromethyloxy)-1H-quinoline-3-carboxylic acid amide], the pEC50 was 6.41 and the Emax is 138%.
On to `Cc1c(C(=O)N(C)c2cccc(F)c2)c(=O)n(CC(=O)O)c2cc(C(F)(F)F)ccc12` [Example 28, 2-[3-[(3-fluorophenyl)-methyl-carbamoyl]-4-methyl-2-oxo-7-(trifluoromethyl)-1H-quinolin-1-yl]-acetic acid], for which the Emax turned out to be 16%.
Consider `CCCCCn1c(=O)c(C(=O)NCc2cccc(F)c2)c(C)c2ccc(C(F)(F)F)cc21` [Example 41, N-[(3-fluorophenyl)-methyl]-4-methyl-2-oxo-1-pentyl-7-(trifluoromethyl)-1H-quinoline-3-carboxylic acid amide], for which the Emax amounted to 18%.
Turning to `COCCn1c(=O)c(C(=O)NCc2ccc(F)cc2)c(C)c2ccc(C#N)cc21` [Example 23, 7-cyano-N-[(4-fluorophenyl)-methyl]-1-(2-methoxy-ethyl)-4-methyl-2-oxo-1H-quinoline-3-carboxylic acid amide], the pEC50 is 5.41 and the Emax was 105%.
`COCCCn1c(=O)c(C(=O)NCc2cccc(F)c2)c(C)c2ccc(C(F)(F)F)cc21` [Example 14, N-[(3-fluorophenyl)-methyl]-1-(3-methoxy-propyl)-4-methyl-2-oxo-7-(trifluoromethyl)-1H-quinoline-3-carboxylic acid amide]: the negative logarithm of the EC50 (pEC50) is 6.00 and the Emax amounted to 61%.
